In patent US12478624B2, “Heterocyclic derivatives, pharmaceutical compositions and their use in the treatment or amelioration of cancer” (Tolremo Therapeutics AG, priority 2019, dated 2025) one finds EC50 data, which are given here for 20 compounds.

One test relates to A375 cells. Description: Assay 1: A375 cells treated with S1152, S1008 and compound, immunofluorescence (sc-365823) signal. It is filed as cell-based. The conditions noted are these: 1 μM S1152 + 0.5 μM S1008, one day. A digest of the protocol:
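A375 cells treated one day with 1 μM S1152, 0.5 μM S1008 and compound dose ranges in DMEM/10% FCS, then fixed, permeabilised and immunostained. Green signal normalised to nuclear counterstain (ethidium-type or DAPI), log ratio fitted by four-parameter regression for EC50.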

In a further test the target is T1, CBP Bromodomain (Homo sapiens, UniProt Q92793).
T1 construct: purchased Cayman chemicals 600850
Description: Assay 3: CBP bromodomain binding assay (TR-FRET). On the procedure: Assay 3 CBP Bromodomain Binding Assay (TR-FRET)
Compounds solutions of 10 mM in DMSO were pre-diluted in DSMO to 25× stock solutions in DMSO. These were then diluted down to 4× in assay buffer. A dilution series in assay buffer was performed keeping the DMSO concentration stable. 5 μl compound in assay buffer was transferred into the assay plate (provided by assay kit) and the TR-FRET assay Cayman chemicals; 600850) was performed using the manufactor's instructions. After 1 hour incubation at room temperature in the darks, assay plates were read in a Tecan M1000 plate reader or a Tecan Spaks reader using the TR-FRET mode (top read; excitation 340 nm bandwidth […]; emission 620 nm bandwidth […]; gain optimal determined for the first well, number of flashes: 5; flash frequency 100 Hz; integration time: 500 μs, lag time: 100 μs, room temperature). The TR-FRET ratio was calculated by deviding 670 nm emission by 620 nm emission. Values were log transformed and non-linear regression with variable slope (4 parameters) was used to fit values to a dose-response curve to evaluate EC50 values.
(In TR-FRET formats the signal depends on donor and acceptor labels being close together.)

In the next test the test system is OPM-2. Nature of the test: Assay 2: multiple myeloma cellular efficacy, PrestoBlue cell proliferation/survival. It is filed as cell-based. The conditions noted are these: Homo sapiens, 96 h, OPM-2 cells, 4 days. A digest of the protocol:
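Cells seeded at 10000/well and exposed to a compound dose range or vehicle for 4 days, then stained with PrestoBlue for 2 h at 37 °C. Fluorescence was background-subtracted and normalized to vehicle; EC50 came from a four-parameter variable-slope fit against log concentration.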

T1 sequence (Q92793 1085-1192 limits assumed): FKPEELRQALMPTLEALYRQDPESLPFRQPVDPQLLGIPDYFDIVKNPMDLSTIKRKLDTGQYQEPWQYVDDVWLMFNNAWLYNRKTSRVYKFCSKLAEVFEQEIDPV

For `CC(=O)N1C[C@H](c2nc(Nc3cccc(-c4cnn(C)c4)c3)cc(-c3cccnc3)n2)CC[C@@H]1C` [Compound 00044, 1-((2S,5R)-2-methyl-5-(4-((3-(1-methyl-1H-pyrazol-4-yl)phenyl)amino)-6-(pyridin-3-yl)pyrimidin-2-yl)piperidin-1-yl)ethan-1-one], the EC50 in the test on A375 cells, at CBP Bromodomain and with OPM-2 was under 200 nM each time.

Regarding `CC(=O)N1C[C@H](c2nc(Nc3cc(C)nc(N4CCOCC4)c3)cc(-c3cnccn3)n2)CC[C@@H]1C` [Compound 00152, 1-((2S,5R)-2-methyl-5-(4-((2-methyl-6-morpholinopyridin-4-yl)amino)-6-(pyrazin-2-yl)pyrimidin-2-yl)piperidin-1-yl)ethan-1-one], the results for the EC50 in the test on A375 cells, at CBP Bromodomain and in the test on OPM-2 were under 200 nM, under 200 nM and 200 to 1000 nM, respectively.

For `CC(=O)N1C[C@H](c2nc(Nc3cc(C)nc(F)c3)cc(-c3cnccn3)n2)CC[C@@H]1C` [Compound 00149, 1-((2S,5R)-5-(4-((2-fluoro-6-methylpyridin-4-yl)amino)-6-(pyrazin-2-yl)pyrimidin-2-yl)-2-methylpiperidin-1-yl)ethan1-one], the EC50 in the test on A375 cells, on CBP Bromodomain and in the test with OPM-2 was under 200 nM throughout.

Turning to `CC(=O)N1C[C@H](c2nc(Nc3ccnc(-c4cn(C)nn4)c3)cc(-c3cnccn3)n2)CC[C@@H]1C` [Compound 00168, 1-((2S,5R)-2-methyl-5-(4-((2-(1-methyl-1H-1,2,3-triazol-4-yl)pyridin-4-yl)amino)-6-(pyrazin-2-yl)pyrimidin-2-yl)piperidin-1-yl)ethan-1-one], the concentration giving a half-maximal response (EC50) in the test with A375 cells, at CBP Bromodomain and in the test on OPM-2 was under 200 nM in each case.

For `CC(=O)N1C[C@H](c2nc(Nc3cccc4nn(C)cc34)cc(-c3cccnc3)n2)CC[C@@H]1C` [Compound 00045, 1-((2S,5R)-2-methyl-5-(4-((2-methyl-2H-indazol-4-yl)amino)-6-(pyridin-3-yl)pyrimidin-2-yl)piperidin-1-yl)ethan-1-one], the EC50 in the test with A375 cells was under 200 nM; on CBP Bromodomain it was under 200 nM; in the test on OPM-2, 200 to 1000 nM.

Turning to `CC(=O)N1C[C@H](c2nc(Nc3cc(F)cc(-c4cn(C)nn4)c3)cc(-c3cnccn3)n2)CC[C@@H]1C` [Compound 00069, 1-((2S,5R)-5-(4-((3-fluoro-5-(1-methyl-1H-1,2,3-triazol-4-yl)phenyl)amino)-6-(pyrazin-2-yl)pyrimidin-2-yl)-2-methylpiperidin-1-yl)ethan-1-one], the EC50 in the test on A375 cells, on CBP Bromodomain and with OPM-2 was under 200 nM in each case.

With `CC(=O)N1C[C@H](c2nc(Nc3cccc(-c4cnn(C)c4)c3)cc(-c3cnccn3)n2)CC[C@@H]1C` [Compound 00065, 1-((2S,5R)-2-methyl-5-(4-((3-(1-methyl-1H-pyrazol-4-yl)phenyl)amino)-6-(pyrazin-2-yl)pyrimidin-2-yl)piperidin-1-yl)ethan-1-one], the EC50 in the test with A375 cells, on CBP Bromodomain and in the test with OPM-2 was under 200 nM each time.

Take `CC(=O)N1C[C@H](c2nc(Nc3ccnc(F)c3)cc(-c3cccnc3)n2)CC[C@@H]1C` [Compound 00104, 1-((2S,5R)-5-(4-((2-fluoropyridin-4-yl)amino)-6-(pyridin-3-yl)pyrimidin-2-yl)-2-methylpiperidin-1-yl)ethan-1-one]: the EC50 in the test on A375 cells, on CBP Bromodomain and in the test with OPM-2 was under 200 nM each time.

As to `CC(=O)Nc1cc(F)cc(Nc2cc(-c3cncc4c3ccn4C)nc([C@@H]3CC[C@H](C)N(C(C)=O)C3)n2)c1` [Compound 00092, N-(3-((2-((3R,6S)-1-acetyl-6-methylpiperidin-3-yl)-6-(1-methyl-1H-pyrrolo[2,3-c]pyridin-4-yl)pyrimidin-4-yl)amino)-5-fluorophenyl)acetamide], the EC50 in the test on A375 cells, on CBP Bromodomain and in the test with OPM-2 was under 200 nM each time.

In the case of `CC(=O)N1C[C@H](c2nc(Nc3ccnc(C(C)C)c3)cc(-c3cnccn3)n2)CC[C@@H]1C` [Compound 00153, 1-((2S,5R)-5-(4-((2-isopropylpyridin-4-yl)amino)-6-(pyrazin-2-yl)pyrimidin-2-yl)-2-methylpiperidin-1-yl)ethan-1-one], the EC50 in the test with A375 cells is under 200 nM; on CBP Bromodomain, under 200 nM; in the test on OPM-2, 200 to 1000 nM.

On to `CC(=O)N1C[C@H](c2nc(Nc3cccc(C(F)F)c3)cc(-c3cccnc3)n2)CC[C@@H]1C` [Compound 00039, 1-((2S,5R)-5-(4-((3-(difluoromethyl)phenyl)amino)-6-(pyridin-3-yl)pyrimidin-2-yl)-2-methylpiperidin-1-yl)ethan1-one], for which the EC50 in the test with A375 cells is under 200 nM; at CBP Bromodomain it was 200 to 1000 nM; in the test on OPM-2 it was under 200 nM.

As for `CC(=O)N1C[C@H](c2nc(Nc3cncc(C)c3)cc(-c3cccnc3)n2)CC[C@@H]1C` [Compound 00009], the EC50 in the test on A375 cells was under 200 nM; at CBP Bromodomain it was under 200 nM; in the test with OPM-2, 200 to 1000 nM.

`CNC(=O)c1cc(F)cc(Nc2cc(-c3cccnc3)nc([C@@H]3CC[C@H](C)N(C(C)=O)C3)n2)c1` [Compound 00041, 3-((2-((3R,6S)-1-acetyl-6-methylpiperidin-3-yl)-6-(pyridin-3-yl)pyrimidin-4-yl)amino)-5-fluoro-N-methylbenzamide]: the EC50 in the test with A375 cells, at CBP Bromodomain and in the test with OPM-2 was under 200 nM throughout.

In the case of `CC(=O)N1C[C@H](c2nc(Nc3ccnc(C)c3)cc(-c3cncc(C)c3)n2)CC[C@@H]1C` [Compound 00103, 1-((2S,5R)-2-methyl-5-(4-(5-methylpyridin-3-yl)-6-((2-methylpyridin-4-yl)amino)pyrimidin-2-yl)piperidin-1-yl)ethan-1-one], the EC50 with A375 cells, on CBP Bromodomain and with OPM-2 was under 200 nM in each case.

Take `CC(=O)N1C[C@H](c2nc(Nc3ccccc3)cc(-c3cncnc3)n2)CC[C@@H]1C` (racemic) [Compound 00072, (+/−)-cis-1-(2-methyl-5-(6-(phenylamino)-[4,5′-bipyrimidin]-2-yl)piperidin-1-yl)ethan-1-one]: the EC50 with A375 cells, at CBP Bromodomain and with OPM-2 was 200 to 1000 nM each time.

`CC(=O)N1C[C@H](c2nc(Nc3cccc(-c4cn(C)nn4)c3)cc(-c3cncc4c3ccn4C)n2)CC[C@@H]1C` [Compound 00086, 1-((2S,5R)-2-methyl-5-(4-((3-(1-methyl-1H-1,2,3-triazol-4-yl)phenyl)amino)-6-(1-methyl-1H-pyrrolo[2,3-c]pyridin-4-yl)pyrimidin-2-yl)piperidin-1-yl)ethan-1-one]: the EC50 with A375 cells, at CBP Bromodomain and in the test on OPM-2 was under 200 nM each time.

On to `CC(=O)N1C[C@H](c2nc(Nc3cccc(-c4cn(C)nn4)c3)cc(-c3cccnc3)n2)CC[C@@H]1C` [Compound 00053, 1-((2S,5R)-2-methyl-5-(4-((3-(1-methyl-1H-1,2,3-triazol-4-yl)phenyl)amino)-6-(pyridin-3-yl)pyrimidin-2-yl)piperidin-1-yl)ethan-1-one], for which the results for the EC50 in the test with A375 cells, on CBP Bromodomain and in the test on OPM-2 were under 200 nM, 1000 to 10000 nM and under 200 nM, respectively.

With `CC(=O)N1C[C@H](c2nc(Nc3ccnc(F)c3)cc(-c3cnccn3)n2)CC[C@@H]1C` [Compound 00128, 1-((2S,5R)-5-(4-((2-fluoropyridin-4-yl)amino)-6-(pyrazin-2-yl)pyrimidin-2-yl)-2-methylpiperidin-1-yl)ethan-1-one], the EC50 with A375 cells, at CBP Bromodomain and in the test on OPM-2 was under 200 nM throughout.

As for `CC(=O)N1C[C@H](c2nc(Nc3ccccc3)cc(-c3cncc4[nH]ccc34)n2)CC[C@@H]1C` (racemic) [Compound 00073, (+/−)-c/s-1-(2-methyl-5-(4-(phenylamino)-6-(1H-pyrrolo[2,3-c]pyridin-4-yl)pyrimidin-2-yl)piperidin-1-yl)ethan-1-one], the EC50 in the test with A375 cells, at CBP Bromodomain and with OPM-2 was under 200 nM throughout.

As for `CC(=O)N1C[C@H](c2nc(Nc3cc(F)cc(-c4cnn(C)c4)c3)cc(-c3cnccn3)n2)CC[C@@H]1C` [Compound 00066, 1-((2S,5R)-5-(4-((3-fluoro-5-(1-methyl-1H-pyrazol-4-yl)phenyl)amino)-6-(pyrazin-2-yl)pyrimidin-2-yl)-2-methylpiperidin-1-yl)ethan-1-one], the EC50 in the test with A375 cells is under 200 nM; at CBP Bromodomain, 1000 to 10000 nM; in the test on OPM-2, under 200 nM.

By EC50 is commonly meant the concentration at which the effect is half-maximal.
